The target of data set [1] is T1, B2 receptor (Homo sapiens, UniProt P30411).
T1 construct: The cell strains used in the study were human primary vein endothelial cells (HPVEC) and human aortic smooth muscle cells (HASMC); endogenous in cells; host or cells: HPVEC and HASMC (human primary cells)
T1 sequence (P30411 1-391): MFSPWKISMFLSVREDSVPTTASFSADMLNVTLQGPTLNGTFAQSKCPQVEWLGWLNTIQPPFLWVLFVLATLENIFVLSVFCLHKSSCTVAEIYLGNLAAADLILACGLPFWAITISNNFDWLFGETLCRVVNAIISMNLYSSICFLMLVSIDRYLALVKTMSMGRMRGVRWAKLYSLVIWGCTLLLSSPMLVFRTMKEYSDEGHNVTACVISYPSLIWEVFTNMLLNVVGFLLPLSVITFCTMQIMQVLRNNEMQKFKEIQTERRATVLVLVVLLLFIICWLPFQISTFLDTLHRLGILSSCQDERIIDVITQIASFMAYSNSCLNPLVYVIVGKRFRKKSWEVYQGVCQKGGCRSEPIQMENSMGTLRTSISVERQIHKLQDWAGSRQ
Put plainly: PG subtype secretion (EIA) induced by Candesartan in HPVEC and HASMC. The data set is classed as cell-based. As to conditions: for PGE2 (%) / PGF-2a (%): 10 μM Candesartan. An excerpt: These percentage values above were all calibrated with respect to bradykinin.

Data set [2] addresses T2, bradykinin (BK) B2 receptors (Homo sapiens, UniProt P30411).
T2 construct: The cell strains used in the study were human primary vein endothelial cells (HPVEC) and human aortic smooth muscle cells (HASMC); endogenous in cells; host or cells: HPVEC and HASMC (human primary cells)
T2 sequence (P30411 1-391): T1 sequence (P30411 1-391)
As to the kind of experiment: PG secretion in cell supernatant by enzyme immunoassay (EIA), relative to 1 μM bradykinin. The format is cell-based. The settings on record: for PG release (%) compared with BK-1 μM (100%): 1 h, 37° C. On the procedure: We studied angiotensin II receptor antagonists activating bradykinin (BK) B2 receptors to promote secretion of Prostaglandin. Losartan, candesartan, telmisartan were selected for the study described below, and bradykinin was used as control. Implantation Two cell lines were transferred into T-75 cell culture flask, and then the instructions of PG kit were strictly followed when cells have reached the appropriate density. Day 1 Cells were seeded in 24 well dishes with minimum medium and allowed to adhere overnight. Day 2 Cells were starved in the serum-free conditioned medium. […] The supernatant was collected after incubation for later use. Day 4 24 well dishes were washed and then dyed for 45-90 min, and then the OD value was measured for analysis. Therefore OD values of BK B2 receptor agonists were obtained and the EC50, EMAX were calculated. The cell strains used in the study were human primary vein endothelial cells (HPVEC) and human aortic smooth muscle cells (HASMC).
In order to detect endogenous prostaglandin, enzyme immunoassay (EIA) was used to determine the amount of prostaglandin and subtypes thereof in the cell supernatant described above.

The target in data set [3] is T1, B2 receptor. Put plainly: Inhibition of PG secretion by B2 receptor inhibitor HOE-140. The format is cell-based. As to conditions: for PG synthesis blocked by 1 μM HOE-140: PG synthesis caused by 10 μM of the compound. On the procedure:
The detailed protocol for the elucidation of inhibited PG secretion by B2 receptor inhibitor HOE-140 was shown as follows. Two different cell lines were transferred into T-75 cell culture flask, and then the instructions of PG kit were strictly followed when cells have reached the appropriate density. Day 1. Cells were seeded in 24 well dishes with minimum medium and allowed to adhere overnight. Day 2. Cells were starved in the serum-free conditioned medium. Day 3. […] Cells were incubated at 37° C. for 1 h. The supernatant was collected after incubation for later use. Day 4. 24 well dishes were washed and then dyed for 45-90 min, and then the quantitative analysis was carried out. Therefore OD values (420 nm) of BK B2 receptor agonists were obtained and the EC50, EMAX were calculated.
Therefore we could conclude the angiotensin II type 1 receptor antagonists influence PG secretion via B2 receptor since HOE-140 acts as B2 receptor antagonist

For data set [4] the following is noted: longest of all commercially available ARBs; cited from earlier work.
[5] abbreviates: 10 μM, calibrated with respect to bradykinin.
The mark [6] stands for this setting: HASMC, calibrated with respect to bradykinin.
Setting [7] is: HPVEC, calibrated with respect to bradykinin.

Regarding `CCOc1nc2cccc(C(=O)O)c2n1Cc1ccc(-c2ccccc2-c2nn[nH]n2)cc1` [Candesartan, 2-ethoxy-1-({4-[2-(2H-1,2,3,4-tetrazol-5-yl)phenyl]phenyl}methyl)-1H-1,3-benzodiazole-7-carboxylic acid], the “Prostaglandin D secretion” value on B2 receptor [1] (10 μM) is reported as “no Prostaglandin D detected”. In addition, the “share of PG secretion that was Prostaglandin E2” value on B2 receptor [1] (setting [5]) is reported as 30%. Besides, at B2 receptor [1] (setting [5]), the “share of PG secretion that was Prostaglandin F-2a” value is “roughly 6%”. Moreover, the “PGE2 (%)” value at B2 receptor [1] (setting [6]) came to 37.13 ± 9.85%; on B2 receptor [1] (setting [7]), 32.54 ± 6.93%. Moreover, the “PGF-2a (%)” value at B2 receptor [1] (setting [6]) amounted to 6.21 ± 2.56%; on B2 receptor [1] (setting [7]), 5.47 ± 3.32%. For the same molecule, the “PG release (%) compared with BK-1 μM (100%)” value (“PG release (%)” below) in data set [2] (1 μM) is given as 16.51 ± 2.02%; in data set [2] (3 μM), 26.91 ± 4.13%; in data set [2] (10 μM), 46.19 ± 5.65%; in data set [2] (30 μM), 86.83 ± 7.21%; in data set [2] (30 nm), 6.21 ± 2.3%; in data set [2] (100 nm), 11.27 ± 2.74%. The “PG release (%)” value in data set [2] (300 nm) is on record as 12.91 ± 3.08%. The “effect relative to the effect of 1 μM of bradykinin (PG secretion)” value (from here on “effect relative to the effect”) in data set [2] (10 μM) is given as about 50%; in data set [2] (30 μM), about 90%. For the same molecule, the “PG relaease (%) compared with BK-1 μM (100%)” value (“PG relaease (%)” below) was determined as 6 ± 3.12% on B2 receptor [3] (10 μM + 1 μM HOE-140) and 46.19 ± 5.65% at B2 receptor [3] (10 μM, without HOE-140). At B2 receptor [3], the “PG synthesis blocked by 1 μM HOE-140” value is on record as 85%.
For `CCCCc1nc(Cl)c(CO)n1Cc1ccc(-c2ccccc2-c2nn[nH]n2)cc1` [Losartan, (2-butyl-4-chloro-1-{[2′-(1H-tetrazol-5-yl)biphenyl-4-yl]methyl}-1H-imidazol-5-yl)methanol], the “PG release (%)” value worked out at 8.16 ± 2.43% in data set [2] (1 μM); 12.06 ± 4.12% in data set [2] (3 μM); 23.18 ± 3.65% in data set [2] (10 μM); 58.17 ± 6.32% in data set [2] (30 μM); 0.18 ± 0.74% in data set [2] (30 nm); 2.96 ± 2.22% in data set [2] (100 nm). The “PG release (%)” value in data set [2] (300 nm) was 4.69 ± 1.21%. In addition, the “effect relative to the effect” value in data set [2] (30 μM) was about 60%. The “PG relaease (%)” value at B2 receptor [3] (10 μM + 1 μM HOE-140) is reported as 5 ± 4.45%; at B2 receptor [3] (10 μM, without HOE-140), 23.18 ± 3.65%. At B2 receptor [3], the “PG synthesis blocked by 1 μM HOE-140” value is 80%.
As for `CCCc1nc2c(C)cc(-c3nc4ccccc4n3C)cc2n1Cc1ccc(-c2ccccc2C(=O)O)cc1` [Telmisartan, 2-(4-{[4-methyl-6-(1-methyl-1H-1,3-benzodiazol-2-yl)-2-propyl-1H-1,3-benzodiazol-1-yl]methyl}phenyl)benzoic acid], in data set [4], the half-life entry is on record as “about 24 h”. Also, the “PG release (%)” value amounted to 9.01 ± 1.35% in data set [2] (1 μM); 13.56 ± 1.56% in data set [2] (3 μM); 14.56 ± 2.42% in data set [2] (10 μM); 25.46 ± 3.48% in data set [2] (30 μM); 4.48 ± 1.54% in data set [2] (30 nm); 4.69 ± 1.78% in data set [2] (100 nm). For the same molecule, in data set [2] (300 nm), the “PG release (%)” value turned out to be 6.46 ± 3.1%. For the same molecule, in data set [2] (30 μM), the “effect relative to the effect” value was about 25%. Moreover, the “PG relaease (%)” value on B2 receptor [3] (10 μM + 1 μM HOE-140) was 3 ± 2.03%; on B2 receptor [3] (10 μM, without HOE-140), 14.56 ± 2.42%. Further, the “PG synthesis blocked by 1 μM HOE-140” value on B2 receptor [3] is recorded as 80%.
